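Five compound concentrations were applied to cells in 96-well plates for 48 hours; endpoints were derived by simple linear interpolation of the resulting dose-response curve. GI50 marks 50% less growth.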 The source made the active and inactive calls. Rule as the data show it: active = GI50 up to about 1.1 µM and inactive = higher.
How the values were obtained:
Assay in all cases: NCI-60 cell line screen, 48 h
[1] = test system: SN12C
[2] = test system: OVCAR-5
[3] = test system: HT-29
[4] = test system: SF-268
[5] = test system: RPMI-8226
[6] = test system: CCRF-CEM
[7] = test system: CAKI-1
[8] = test system: Malme-3M
[9] = test system: M14
[10] = test system: HCT-116
[11] = test system: K562
[12] = test system: SK-MEL-2
[13] = test system: UACC-62
[14] = test system: RXF 393
[15] = test system: HOP-62
[16] = test system: MOLT-4
[17] = test system: SNB-19
[18] = test system: HCC 2998
[19] = test system: BT-549

Measured: GI50

COc1cc(O)c2c(c1)OCC(Cc1ccc(O)cc1)C2=O (configuration not stated)
inactive: [1] > 100 µM | [2] > 100 µM | [3] > 100 µM | [4] 80.5 µM | [5] 65.5 µM | [6] > 100 µM | [7] 68.5 µM | [8] > 100 µM | [9] > 100 µM | [10] > 100 µM | [11] > 100 µM | [12] > 100 µM | [13] > 100 µM | [14] 21.1 µM | [15] > 100 µM | [16] > 100 µM | [17] > 100 µM

Cc1nc(O)nc(N(CCO)/N=C/c2ccc(Cl)cc2)c1C(=O)Nc1ccc(Cl)cc1
inactive: [1] > 100 µM | [2] > 100 µM | [3] > 100 µM | [4] 89.7 µM | [6] > 100 µM | [7] > 100 µM | [8] 26.1 µM | [9] 87.3 µM | [10] 57.8 µM | [11] > 100 µM | [12] 34.4 µM | [18] > 100 µM | [13] > 100 µM | [14] 24.7 µM | [15] 59.7 µM | [16] > 100 µM | [17] 83.9 µM

COC(=O)C(Cc1c[nH]c2ccccc12)NP(=O)(O)OCC1OC(n2cc(I)c(=O)[nH]c2=O)CC1O (configuration not stated)
inactive: [1] > 100 µM | [2] > 100 µM | [3] > 100 µM | [4] > 100 µM | [5] > 100 µM | [6] > 100 µM | [7] > 100 µM | [8] > 100 µM | [9] > 100 µM | [10] > 100 µM | [11] > 100 µM | [13] > 100 µM | [15] > 100 µM | [16] > 100 µM | [17] > 100 µM | [19] > 100 µM

Fc1sc2c(c1F)C1CCC2C1 (configuration not stated)
inactive: [1] > 100 µM | [2] > 100 µM | [3] 68.9 µM | [4] > 100 µM | [5] 31.9 µM | [7] > 100 µM | [8] > 100 µM | [9] > 100 µM | [10] 48.8 µM | [12] > 100 µM | [18] > 100 µM | [13] 51.8 µM | [14] 88.1 µM | [15] > 100 µM | [16] 34.6 µM | [17] > 100 µM

COc1cc2c[n+]3c4c(c2c(OC)c1OC)CCCC4CC3 (configuration not stated)
inactive: [2] > 100 µM | [3] > 100 µM | [5] > 100 µM | [6] 35.3 µM | [7] > 100 µM | [8] 15.5 µM | [9] > 100 µM | [10] > 100 µM | [11] 62.4 µM | [12] > 100 µM | [18] 98.4 µM | [13] > 100 µM | [14] > 100 µM | [15] > 100 µM | [16] > 100 µM | [17] 36.6 µM

[BH3-][P+]1(CC[P@@+]([BH3-])(c2ccccc2)c2ccccc2OC)[C@@H](C)[C@@H](O)[C@H](O)[C@@H]1C (some centres not stated)
inactive: [1] 13.4 µM | [2] 18.1 µM | [3] 22.6 µM | [4] 17.2 µM | [5] 23.4 µM | [6] 24.2 µM | [7] 15.6 µM | [8] 11.2 µM | [9] 16.7 µM | [10] 17.7 µM | [11] 26.1 µM | [12] 15.7 µM | [13] 14.8 µM | [14] 16.4 µM | [15] 16.9 µM | [16] 20.4 µM | [17] 17 µM

Cn1c(=O)c2nc[nH]c2n(C)c1=O [THEOPHYLLINE]
inactive: [1] > 100 µM | [2] > 100 µM | [5] > 100 µM | [6] > 100 µM | [7] 22.9 µM | [8] > 100 µM | [9] > 100 µM | [10] > 100 µM | [11] > 100 µM | [12] > 100 µM | [18] > 100 µM | [15] > 100 µM | [16] > 100 µM
